Experimental data from patent US20040219232A1, “Methods and compounds for treating malabsorption diseases and inflammatory conditions of the gastrointestinal tract” (Zengen, Inc., priority 2003, published 2004).
Entries after “also recorded” stand apart in the source; their conditions may differ. Where no end group is shown, it is not given here. [ ]: non-standard residue; d: D form. dNle = CCCC[C@@H](N)C(=O)O

Tests used:
[1] = compared with L-form tripeptide; cited from earlier work
[2] = Potency/efficacy of α-MSH fragments and derivatives compared to parent α-MSH (anti-inflammatory and/or antipyretic properties); conditions: discovered by the inventors; no method or data given
Source text: It is contemplated that derivatives of α-MSH will have analogous function. It is understood that derivatives of α-MSH means functionally equivalent peptides. […] Thus, α-MSH derivative would include, among others, the partial segments of the 13 amino acid peptide. Specifically, α-MSH is composed of the following sequence of amino acids: SYSMEHFRWGKPV (SEQ ID. NO. 1). […] These derivatives of the parent α-MSH are functional equivalents.

[3] = has been shown; no method given; cited from earlier work
[4] = tested on: IL-6 production by gliadin-stimulated duodenal mucosa; test: Gliadin-stimulated cytokine production by duodenal mucosa specimens incubated 24 h in vitro, with or without synthetic α-MSH; assay type: cell-based, human; conditions: co-incubation with α-MSH 10^−5 M, controls, untreated celiac and treated celiac patients (all groups), ELISA
Source text: (§1) Four biopsy specimens from the distal duodenum were obtained during upper gastrointestinal endoscopy. Two of such specimens were fixed in 10% formalin and paraffin embedded for standard histological examination. The remaining two specimens from each subject were available for this research and were allocated for either 1) RT-PCR and immunohistochemical studies (N=20: 9 celiac, 7 celiac on diet, 4 normal); 2) cytokine production in vitro in the presence or absence of α-MSH(N=22: 11 celiac, 6 celiac on diet, 5 normal); or 3) cytokine production in vitro after gliadin stimulation in the presence or absence of α-MSH(N=25: 14 celiac, 6 celiac on diet, 5 normal).
(§2) A series of 47 specimen pairs were used to evaluate cytokine production by celiac mucosa in vitro and the influence of α-MSH on such production. […]
(§3) α-MSH was measured using a double-antibody radioimmunoassay (RIA) method (Eurodiagnostica, Malmo, Sweden); the sensitivity calculated from a decrease in binding of 2 SD in the zero standard was 4.8 pg/ml and the cross-reactivity with other POMC peptides (ACTH [1-24], ACTH [1-39], β-MSH, γ-MSH) is <0.002%. IL-1β, IL-6, and TNF-α were determined using commercial ELISA methods (Amersham Pharmacia Biotech, Little Chalfont, UK).
(§4) Values were expressed as means±SEM. […]

[5] = tested on: IL-1β, IL-6 and TNF-α production by celiac mucosa; test: Spontaneous (non-stimulated) cytokine production by duodenal mucosa specimens incubated 24 h in vitro, with or without synthetic α-MSH; assay type: cell-based, human; conditions: α-MSH 10^−5 M in incubation medium, no gliadin
Source text: as §1, §2, §3, §4

[6] = tested on: fever; conditions: compared with α-MSH; cited from earlier work

For Ac-[D-K11]-α-MSH 11-13-NH2, the “Potency relative to the L-form of the tripeptide α-MSH (11-13)” value [1] is listed as “same general potency”.
For “His-DNle-Arg-Trp-Phe-Lys-Pro-Val (H[dNle]RWFKPV)”, the “Potency over the parent α-MSH and its derivatives” value [2] was “increased potency”.
For KPV, the “Potency/efficacy compared to parent α-MSH” value [3] is given as “as potent or more potent than the parent α-MSH”.
For “SYSMEHFRWGKPV [α-MSH, 13 amino acid peptide produced by post-translational processing of pro-opiomelanocortin; synthetic peptide used in the tests]”, the “IL-6 production/release in supernatants of gliadin-stimulated duodenal specimens” value [4] was “significantly decreased; also recorded: substantial reduction; also recorded: significantly reduced; also recorded: statistically significant inhibition” and the “Non-stimulated 24 h production of IL-1β, IL-6 and TNF-α by celiac mucosa after addition of α-MSH” value [5] was “no change”.
For [Nle^4,D-Phe^7]-α-MSH, the “Potency in reducing fever relative to the parent peptide α-MSH” value [6] is given as “approximately ten times more potent”.
